Experimental data published in US12286437B2, “Cardiac sarcomere inhibitors” (Cytokinetics, Inc., priority 2021, dated 2025).

Key:
[1] = system: Rat Cardiac Contractility; experiment: Echocardiography assessment of acute pharmacodynamic effect in rat cardiac contractility (fractional shortening); format: in vivo, Sprague Dawley rats; conditions: oral gavage, plasma concentration vs fractional shortening, 1 and 4 h post-dose
Protocol: Assessment of in vivo cardiac function by echocardiography was performed in male Sprague Dawley rats under isoflurane (1-3%) anesthesia. 2-D M-mode images of the left ventricle were acquired in the parasternal long-axis view before, during, and after administration of compounds. In vivo fractional shortening was determined by M-mode image analysis with the following calculation: ((End diastolic diameter−end systolic diameter)[…] end diastolic diameter×100). Three pre-dose baseline M-Mode images were taken at 1-minute intervals prior to compound administration. Compounds were formulated in a 0.5% hydroxypropyl methylcellulose 2910 (HPMC 2910): 0.1% Tween 80 suspension and delivered as a single dose (5 mL/kg) by oral gavage. At one and four hours post-dose, rats were lightly anesthetized for M-mode echocardiography measurement. Concurrent with echocardiography measurements, blood samples were taken to determine the corresponding compound plasma concentrations. The resulting plasma concentrations were used to estimate the IC50 and IC10 values, which is the concentration at which fractional shortening is 50% and 10% of the pre-dose baseline contractility, respectively.

[2] = Dog single dose pharmacokinetics; format: in vivo, beagle dogs; conditions: male, beagle, plasma, IV; for Vd: read-out: Vss; for half-life: read-out: t½ (converted)
Protocol: (§1) Non-naïve male beagle dogs (8 months-3 years of age, body weight 8-13 kg) were used in this study. All animals for IV administration had free access to food and water; all animals for PO were fasted overnight prior to dosing and were fed approximately 6 hours after dosing. For the animals in PO group, pentagastrin (6.0 μg/kg, i.m.) was administrated 20 minutes before dosing PO formulation and 1.5 hours after the first pentagastrin dosing. The dosing volume was 0.024 mL/kg, the concentration was 250 μg/mL in DMSO/1 N NaOH/PBS. 10 mL of 0.001 N HCl was used to wash the gavage catheter for each animal. The IV dose solution was prepared in 10% DMA/50% PG/40% HPβCD solution (40% w/v aqueous HPβCD) at a concentration of 1.0 mg/mL. The oral dose suspension was prepared by suspending the compound in 0.5% HPMC/0.1% Tween 80 in distilled water at a concentration of 0.2 mg/mL. Concentrations of IV and PO doses were measured at the end of the study. PK parameters were calculated using the nominal dose values if the measured values were within 20% of the nominal values. Blood samples were collected by venipuncture of peripheral veins except the dosing vein at pre-dose, 5 15, 30 min, 1, 2, 4, 6, 8, 24 and 48 h post-dose. Blood samples were centrifuged and resultant plasma was frozen for bioanalysis. Plasma samples were stored at −80° C. before analysis. Plasma samples were analyzed for compound concentrations using the LC/MS/MS method. Briefly, a 50 μL aliquot of each plasma sample was mixed with 100 μL of acetonitrile that contained an internal standard. The mixture was vortexed and centrifuged. Ten (10) μL of the resulting solution was injected onto a reverse-phase C18 column and the resultant peaks detected on a LC/MS/MS equipped with a turbo ionspray ionization source. Sample concentrations below the limit of quantification (BLQ) were treated as zero for PK calculations. PK parameters were estimated from individual animals using noncompartmental analysis of the concentration-time data (Phoenix WinNonLin software, version 64; Pharsight, Mountain View, CA). The elimination rate constant (k) was calculated as the absolute value of the slope of the linear regression of logarithm (log) of the concentration versus time for the last three data points of the concentration-time profiles. Apparent elimination half-life (t1/2) values were calculated as ln(2)/k. Area under the concentration-time curve (AUC) values were estimated using linear trapezoidal method. AUCt values were calculated from the dosing time to the last measurable concentration. AUC∞ values were calculated as the sum of the corresponding AUCt and the ratio of the last detectable concentration divided by k. Plasma clearance (CL) was calculated from Dose/AUC∞. Mean resident time extrapolated to infinity (MRT∞) was estimated by moment analysis. Vss was calculated from MRT∞×CL. Maximum concentration (Cmax) and time to reach Cmax (tmax) were recorded as observed. As this was a cross-over study, bioavailability was calculated dAUC∞,po/dAUC∞,iv×100% where dAUC was the dose normalized AUC value from the same animal given IV and PO dose. Data for compounds tested are provided in Table D. Compounds tested were prepared in accordance with the synthetic procedures described herein.

[3] = Monkey single dose pharmacokinetics; format: in vivo; conditions: male, plasma, cynomolgus monkey, IV; for Vd: read-out: Vss; for half-life: read-out: t½ (converted)
Protocol: as §1, with “Non-naïve Male Cynomolgus Monkey (2-5” for “Non-naïve male beagle dogs (8 months-3”, “weight 2-5” for “weight 8-13”, “kg)” for “kg) were”, “this study were obtained from Topgene Biotechnology.” for “this study.”, “dosing.” for “dosing. For the animals in PO group, pentagastrin (6.0 μg/kg, i.m.) was administrated 20 minutes before dosing PO formulation and 1.5 hours after the first pentagastrin dosing. The dosing volume was 0.024 mL/kg, the concentration was 250 μg/mL in DMSO/1 N NaOH/PBS. 10 mL of 0.001 N HCl was used to wash the gavage catheter for each animal.”, “Table E.” for “Table D.”

Structure (SMILES) | IC50 [1] [nM] | clearance [2] [mL/min/kg] | Vd [2] [L/kg] | half-life [2] [min] | clearance [3] [mL/min/kg] | Vd [3] [L/kg] | half-life [3] [min] | IC10 [1] [µM]
C[C@H]1CC[C@H](N2CC(=O)N(Cc3ccc(F)c(F)c3)C3(CN(C(N)=O)C3)C2=O)CC1 [Compound 5, 5-(3,4-difluorobenzyl)-8-((1r,4r)-4-methylcyclohexyl)-6,9-dioxo-2,5,8-triazaspiro[3.5]nonane-2-carboxamide] | 4440 | – | – | – | – | – | – | 1.17
C[C@H]1CC[C@H](N2CC(=O)N(Cc3ccc(Cl)cc3)C3(CN(C(N)=O)C3)C2=O)CC1 [Compound 18, 5-(4-chlorobenzyl)-8-((1r,4r)-4-methylcyclohexyl)-6,9-dioxo-2,5,8-triazaspiro[3.5]nonane-2-carboxamide] | 2840 | 18.8 | 5.73 | 348 | 7.91 | 6.08 | 654 | 0.892
C[C@H]1CC[C@H](N2CC(=O)N(Cc3ccc(F)c(F)c3)C3(CN(C=O)C3)C2=O)CC1 [Compound 4, 5-(3,4-difluorobenzyl)-8-((1r,4r)-4-methylcyclohexyl)-6,9-dioxo-2,5,8-triazaspiro[3.5]nonane-2-carbaldehyde] | 2760 | – | – | 572 | – | – | – | 0.284

These reach a lower IC50 [1]. Values come first.

IC50 [1] [nM] | clearance [2] [mL/min/kg] | Vd [2] [L/kg] | half-life [2] [min] | clearance [3] [mL/min/kg] | Vd [3] [L/kg] | half-life [3] [min] | Structure (SMILES) | IC10 [1] [µM]
2250 | – | – | – | – | – | – | CC(C)N1CC(=O)N(Cc2ccc(Cl)c(F)c2)C2(CN(c3cccnn3)C2)C1=O [Compound 8, 5-(4-chloro-3-fluorobenzyl)-8-isopropyl-2-(pyridazin-3-yl)-2,5,8-triazaspiro[3.5]nonane-6,9-dione] | 0.508
1170 | 7.45 | 2.85 | 386 | 25.8 | 3.98 | 123 | CC(C)N1CC(=O)N(Cc2ccc(C(F)(F)F)cc2)C2(CN(c3cccnn3)C2)C1=O [Compound 13, 8-isopropyl-2-(pyridazin-3-yl)-5-(4-(trifluoromethyl)benzyl)-2,5,8-triazaspiro[3.5]nonane-6,9-dione] | 0.317
